These results are taken from patent US20250228835A1, “PYRIDINYLOXYPYRIDINES AND RELATED COMPOUNDS AND THEIR USE IN TREATING MEDICAL CONDITIONS” (Rectify Pharmaceuticals, Inc., priority 2024, published 2025).

The structures appear in SMILES notation.

One assay concerns the target T1, ABCC6 WT (Homo sapiens, UniProt O95255).
T1 construct: expressed in transfected cells; host or cells: HEK-293 (transient, Lipofectamine 2000)
As to the kind of experiment: ABCC6 WT assay: HiBit protein expression. Type of assay: cell-based. To be noted: HEK-293 cells transiently expressing HiBit-tagged ABCC6 WT; 24 h treatment; top concentration 20 μM; read-out: ABCC6 WT EC50, Emax. From the text:
To assess activity against ABCC6, compounds were screened in an assay measuring protein expression, using cells transfected with cDNA encoding HiBit-tagged ABCC6 wild-type.
Described here is an assay for measuring the expression of the wild type of human ABCC6 (henceforth referred to as ABCC6 WT) and the use of this assay to measure the efficacy of compounds to increase the expression of ABCC6 WT. The assay was designed to characterize the efficacy and potency of compounds to increase the expression of ABCC6 WT by calculating an Emax and EC50 value. HEK-293 cells transiently expressing ABCC6 WT (HEK-293/ACC6 WT) were used for this assay and were cultured at 37° C. (5% CO2, humidified) in Dulbecco's Modified Eagle Medium (DMEM, Gibco product #11965-092) supplemented with 10% fetal bovine serum. For the assay, HEK-293 cells were transfected with […]/10 cm plate of cDNA encoding HiBit-tagged ABCC6 wild-type using Lipofectamine 2000 (Thermo Fisher, product #11668019). Twenty-four hours after transfection, the HEK-293/ACC6 WT cells were seeded in white/opaque 384-well plates (PerkinElmer, cat. No. 6007688) at 10,000 cells/well in 20 μl growth medium and allowed to settle for 4 hours at 37° C. (5% CO2, humidified). Compound serial dilutions are prepared in growth medium as ten times (10×) the final concentration and using a dilution factor of 2. After the four-hour incubation period, 2.2 μL of the 10× dilutions are transferred to the assay plate.
Dose response curves include ten doses with the top final concentration at 20 μM in 0.15% DMSO. Liquid handling is performed with an Integra mini96-tip head (INTEGRA). After addition of compound treatment, cells are incubated for 24 hours at 37° C. (5% CO2, humidified). After the 24-hour treatment, plates are allowed to equilibrate for 15 minutes at room temperature. Using Integra mini-96, 20 μl of HiBit lytic assay reagent (Promega, product #N3040), which is prepared according to manufacturer's instructions, is added to each well. The plates are rotated at room temperature for 10 minutes and luminescent signal is acquired using an EnVision Multimode Plate Reader (PerkinElmer).
Results are presented below in Table 4 for ABCC6 WT.

The target in another assay is T2, ABCA4 P1380L (Homo sapiens, UniProt P78363, P1380L).
T2 construct: expressed in transfected cells
T2 sequence (P78363 whole entry P1380L): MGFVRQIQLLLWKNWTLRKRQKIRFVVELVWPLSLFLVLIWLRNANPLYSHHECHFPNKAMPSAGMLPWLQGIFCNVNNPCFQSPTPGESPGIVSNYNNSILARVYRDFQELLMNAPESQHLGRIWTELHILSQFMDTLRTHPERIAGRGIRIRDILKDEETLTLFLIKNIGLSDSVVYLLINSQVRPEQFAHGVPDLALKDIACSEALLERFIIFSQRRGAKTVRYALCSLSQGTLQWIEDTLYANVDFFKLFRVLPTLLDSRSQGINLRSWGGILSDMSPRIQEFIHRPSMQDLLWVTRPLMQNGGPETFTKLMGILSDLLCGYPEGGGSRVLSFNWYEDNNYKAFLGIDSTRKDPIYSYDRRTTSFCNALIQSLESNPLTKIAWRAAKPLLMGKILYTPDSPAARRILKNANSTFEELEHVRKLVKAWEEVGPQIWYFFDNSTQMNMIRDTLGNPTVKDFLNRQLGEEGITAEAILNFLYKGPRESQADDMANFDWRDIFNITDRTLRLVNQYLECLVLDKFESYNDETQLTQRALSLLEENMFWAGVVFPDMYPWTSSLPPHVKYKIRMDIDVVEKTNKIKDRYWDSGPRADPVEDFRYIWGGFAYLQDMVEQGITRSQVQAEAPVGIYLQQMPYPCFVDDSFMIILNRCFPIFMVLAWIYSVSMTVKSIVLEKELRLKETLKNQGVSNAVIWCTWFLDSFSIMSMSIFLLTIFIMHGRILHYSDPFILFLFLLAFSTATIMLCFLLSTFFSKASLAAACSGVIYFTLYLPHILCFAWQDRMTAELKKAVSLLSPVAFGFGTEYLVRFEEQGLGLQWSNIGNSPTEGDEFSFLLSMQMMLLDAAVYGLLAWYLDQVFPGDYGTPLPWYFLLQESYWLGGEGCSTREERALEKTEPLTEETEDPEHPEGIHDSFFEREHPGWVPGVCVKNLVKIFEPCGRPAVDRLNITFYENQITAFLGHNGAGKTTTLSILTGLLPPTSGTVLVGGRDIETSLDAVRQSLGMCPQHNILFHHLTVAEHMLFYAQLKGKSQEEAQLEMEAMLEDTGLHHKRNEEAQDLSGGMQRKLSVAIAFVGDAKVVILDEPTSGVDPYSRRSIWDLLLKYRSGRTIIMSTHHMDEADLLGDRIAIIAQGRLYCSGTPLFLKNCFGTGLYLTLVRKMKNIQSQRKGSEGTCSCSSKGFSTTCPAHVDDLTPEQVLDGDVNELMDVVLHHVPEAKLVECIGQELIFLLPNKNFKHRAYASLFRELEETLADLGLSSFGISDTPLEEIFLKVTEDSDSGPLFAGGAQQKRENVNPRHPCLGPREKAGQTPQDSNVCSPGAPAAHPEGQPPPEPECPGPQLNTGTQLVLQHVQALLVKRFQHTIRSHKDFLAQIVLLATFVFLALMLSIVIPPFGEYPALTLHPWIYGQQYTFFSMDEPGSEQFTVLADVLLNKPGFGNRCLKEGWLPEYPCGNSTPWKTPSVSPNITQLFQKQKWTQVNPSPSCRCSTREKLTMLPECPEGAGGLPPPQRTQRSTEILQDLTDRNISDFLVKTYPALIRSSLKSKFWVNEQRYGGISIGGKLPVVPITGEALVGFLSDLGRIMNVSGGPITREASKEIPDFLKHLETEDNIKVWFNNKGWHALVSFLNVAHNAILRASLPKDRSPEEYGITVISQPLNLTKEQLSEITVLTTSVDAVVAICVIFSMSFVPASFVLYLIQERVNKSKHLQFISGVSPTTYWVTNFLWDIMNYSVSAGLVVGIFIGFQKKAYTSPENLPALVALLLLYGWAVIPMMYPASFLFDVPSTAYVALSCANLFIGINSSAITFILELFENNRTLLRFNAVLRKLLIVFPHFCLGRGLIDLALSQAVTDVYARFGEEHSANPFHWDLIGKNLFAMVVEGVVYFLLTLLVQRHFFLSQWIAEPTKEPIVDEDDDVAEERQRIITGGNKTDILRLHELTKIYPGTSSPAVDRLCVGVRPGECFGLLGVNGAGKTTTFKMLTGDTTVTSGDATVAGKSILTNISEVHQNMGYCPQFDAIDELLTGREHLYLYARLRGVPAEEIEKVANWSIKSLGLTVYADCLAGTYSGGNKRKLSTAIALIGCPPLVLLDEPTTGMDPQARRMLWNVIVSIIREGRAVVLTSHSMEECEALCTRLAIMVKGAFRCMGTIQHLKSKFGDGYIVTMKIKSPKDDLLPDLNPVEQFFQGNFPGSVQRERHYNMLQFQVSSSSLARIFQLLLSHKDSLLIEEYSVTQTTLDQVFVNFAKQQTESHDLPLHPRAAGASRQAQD
In words: A4 correction dose-response assay: ABCA4 P1380L HiBit protein expression. To be noted: HEK-293 cells stably expressing HiBit-tagged ABCA4 P1380L; 24 h treatment; top concentration 30 μM; read-out: ABCA4 P1380L EC50, Emax. Type of assay: cell-based. Here is the method: Exemplary compounds were evaluated in an A4 correction dose-response assay.
To assess activity against ABCA4 P1380L, the compounds were screened in an assay measuring protein expression, using cells transfected with cDNA encoding HiBit-tagged ABCA4 P1380L. Here we describe an assay for measuring the expression of the P1380L variant of human ABCA4 (henceforth referred to as ABCA4 P1380L) and the use of this assay to measure the efficacy of compounds to increase the expression of ABCA4 P1380L. The assay was designed to characterize the efficacy and potency of compounds to increase the expression of ABCA4 P1380L by calculating an Emax and EC50 value. […] (5% CO2, humidified). […] After the four-hour incubation period, 60 nL of DMSO solutions are transferred to the assay plate.
Dose response curves include eleven doses with the top final concentration at 30 μM in 0.3% DMSO. Liquid handling is performed with ECHO 550 Acoustic Liquid Handler (Labcyte). After addition of compound treatment, cells are incubated for 24 hours at 37° C. (5% CO2, humidified). After the 24-hour treatment, plates are allowed to equilibrate to room temperature for 10 minutes. Using Dragonfly Automated Liquid Handler (TTP LabTech), 20 μl of HiBit lytic assay reagent (Promega, product #N3040), which is prepared according to manufacturer's instructions, is added to each well. The plates are rotated at room temperature for 2 minutes and incubated for 1 hour at 25° C. before luminescent signal is acquired using an EnVision Multimode Plate Reader (PerkinElmer).

T1 sequence (O95255 whole entry): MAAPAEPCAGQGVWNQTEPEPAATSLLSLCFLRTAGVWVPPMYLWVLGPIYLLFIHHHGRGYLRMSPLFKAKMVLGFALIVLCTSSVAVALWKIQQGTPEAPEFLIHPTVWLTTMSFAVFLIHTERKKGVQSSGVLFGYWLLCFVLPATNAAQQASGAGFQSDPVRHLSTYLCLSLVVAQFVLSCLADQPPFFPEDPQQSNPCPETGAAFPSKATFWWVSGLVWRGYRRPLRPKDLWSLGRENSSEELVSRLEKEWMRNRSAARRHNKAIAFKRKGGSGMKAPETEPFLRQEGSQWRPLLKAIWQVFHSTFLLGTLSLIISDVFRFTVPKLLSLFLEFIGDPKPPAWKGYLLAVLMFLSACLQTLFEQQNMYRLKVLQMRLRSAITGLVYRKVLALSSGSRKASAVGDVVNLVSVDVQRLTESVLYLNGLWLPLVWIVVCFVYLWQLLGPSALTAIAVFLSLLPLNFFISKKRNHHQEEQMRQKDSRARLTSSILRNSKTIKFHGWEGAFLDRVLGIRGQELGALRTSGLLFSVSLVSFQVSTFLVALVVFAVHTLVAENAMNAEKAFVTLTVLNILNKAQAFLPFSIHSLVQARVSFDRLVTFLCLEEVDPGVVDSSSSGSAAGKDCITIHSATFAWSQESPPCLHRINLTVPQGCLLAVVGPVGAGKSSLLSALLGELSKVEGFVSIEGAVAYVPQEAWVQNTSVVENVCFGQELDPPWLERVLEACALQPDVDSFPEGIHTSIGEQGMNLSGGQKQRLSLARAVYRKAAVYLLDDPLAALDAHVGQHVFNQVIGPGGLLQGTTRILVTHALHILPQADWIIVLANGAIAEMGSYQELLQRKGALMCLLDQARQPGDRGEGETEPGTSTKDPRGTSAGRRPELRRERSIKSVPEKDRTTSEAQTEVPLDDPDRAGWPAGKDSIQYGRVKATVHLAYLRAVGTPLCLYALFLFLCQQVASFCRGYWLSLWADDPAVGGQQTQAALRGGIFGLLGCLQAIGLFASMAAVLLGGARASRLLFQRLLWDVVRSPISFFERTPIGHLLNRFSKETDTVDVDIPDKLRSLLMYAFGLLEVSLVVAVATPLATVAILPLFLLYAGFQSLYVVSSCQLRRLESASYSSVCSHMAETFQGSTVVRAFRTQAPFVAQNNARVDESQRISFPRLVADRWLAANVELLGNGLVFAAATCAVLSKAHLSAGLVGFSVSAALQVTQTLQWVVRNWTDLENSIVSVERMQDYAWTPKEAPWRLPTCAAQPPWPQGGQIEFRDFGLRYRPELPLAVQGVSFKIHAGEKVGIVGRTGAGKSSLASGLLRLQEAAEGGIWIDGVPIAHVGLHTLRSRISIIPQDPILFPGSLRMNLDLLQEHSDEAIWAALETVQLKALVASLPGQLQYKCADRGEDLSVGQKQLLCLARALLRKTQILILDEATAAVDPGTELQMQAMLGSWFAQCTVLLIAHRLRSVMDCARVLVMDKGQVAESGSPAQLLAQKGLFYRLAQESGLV

For the compound `Cc1nc(C(F)(F)F)cc(C2CC2)c1Oc1nc(-c2cncc(C#N)c2)ccc1N(C)S(C)(=O)=O` [Compound I-154], the EC50 on ABCC6 WT and at ABCA4 P1380L was < 25 µM in each case.
As for `Cc1nc(C(F)(F)F)cc(C2CC2)c1Oc1nc(-c2cncc(C#N)c2)ccc1NS(C)(=O)=O` [Compound I-155], the EC50 on ABCC6 WT and at ABCA4 P1380L was < 1 µM throughout.
Take `Cc1cc(C(F)(F)F)nc(C2CC2)c1Oc1nc(-c2cncc(C#N)c2)ccc1N(C)S(C)(=O)=O` [Compound I-156]: the EC50 is ≥ 25 µM on ABCC6 WT and < 25 µM on ABCA4 P1380L.
With `Cc1nc(C)c(Oc2nc(-c3cncc(C#N)c3)ccc2N(C)S(C)(=O)=O)c(C2CC2)n1` [Compound I-157], the EC50 on ABCC6 WT is ≥ 25 µM; on ABCA4 P1380L, > 25 µM.
In the same order, the values of `Cc1cc(C(F)(F)F)nc(C2CC2)c1Oc1nc(-c2cncc(Cl)c2)ccc1NS(C)(=O)=O` [Compound I-158] are < 1 µM and < 1 µM.
Turning to `Cc1nc(N2CC(C#N)C2)nc(C)c1Oc1nc(-c2cncc(C#N)c2)ccc1NS(C)(=O)=O` [Compound I-159], the EC50 on ABCC6 WT is < 1 µM; on ABCA4 P1380L, < 25 µM.
For `Cc1nc(N2CC3(COC3)C2)nc(C)c1Oc1nc(-c2cncc(C#N)c2)ccc1NS(C)(=O)=O` [Compound I-160], in that order: 1 to 10 µM and > 25 µM.
In the same order, the values of `Cc1cc(C2CC2)nc(C2CC2)c1Oc1nc(-c2cncc(C#N)c2)ccc1NS(C)(=O)=O` [Compound I-161] are < 1 µM and < 1 µM.
On to `Cc1nc(C2CC2)cc(C2CC2)c1Oc1nc(-c2cncc(C#N)c2)ccc1NS(C)(=O)=O` [Compound I-162], for which the concentration for a half-maximal effect (EC50) on ABCC6 WT and at ABCA4 P1380L was < 1 µM each time.
As for `Cc1cc(C(F)(F)F)nc(C2CC2)c1Oc1nc(-c2cncc(C#N)c2)ccc1NS(C)(=O)=O` [Compound I-163], the concentration giving a half-maximal response (EC50) was < 1 µM on ABCC6 WT and < 25 µM at ABCA4 P1380L.
In the same order, the values of `Cc1nc(C)c(Oc2nc(-c3cncc(Cl)c3)ccc2NS(C)(=O)=O)c(C2CC2)n1` [Compound I-164] are < 25 µM and 1 to 10 µM.
Turning to `Cc1cc(C(F)(F)F)nc(C2CC2)c1Oc1nc(-c2cncc(C#N)c2)ccc1N=S(C)(C)=O` [Compound I-286], the concentration giving a half-maximal response (EC50) on ABCC6 WT is < 1 µM; at ABCA4 P1380L, > 25 µM.
In the same order, the values of `Cc1cc(C(F)(F)F)nc(C2CC2)c1Oc1nc(-c2cncc(C#N)c2)ccc1S(=N)(=O)C1CC1` (centres unmarked) [Compound I-287] are ≥ 25 µM and > 25 µM.
For `Cc1cc(C(F)F)nc(C2CC2)c1Oc1nc(-c2cncc(C#N)c2)ccc1S(=O)(=O)NC1CC1` [Compound I-288], the EC50 on ABCC6 WT is < 1 µM; at ABCA4 P1380L it was 1 to 10 µM.
For `CNS(=O)(=O)c1ccc(-c2cncc(C#N)c2)nc1Oc1c(C)cc(C(F)F)nc1C1CC1` [Compound I-289], in that order: < 1 µM and > 25 µM.
Consider `Cc1cc(C(F)(F)F)nc(C2CC2)c1Oc1nc(-c2cncc(C#N)c2)ccc1S(=O)(=O)N1CCOCC1` [Compound I-290], for which the EC50 on ABCC6 WT is ≥ 25 µM; on ABCA4 P1380L it was > 25 µM.
In the case of `Cc1cc(C(F)(F)F)nc(C2CC2)c1Oc1nc(-c2cncc(C#N)c2)ccc1S(=O)(=O)N(C)C` [Compound I-291], the values for the EC50 on ABCC6 WT and at ABCA4 P1380L were 1 to 10 µM and < 25 µM, respectively.
For `Cc1nc(C(F)(F)F)nc(C2CC2)c1Oc1nc(-c2cncc(C#N)c2)ccc1S(=O)(=O)NC1CC1` [Compound I-292], in that order: < 1 µM and 1 to 10 µM.
Regarding `CNS(=O)(=O)c1ccc(-c2cncc(C#N)c2)nc1Oc1c(C)cc(C(F)(F)F)nc1C1CC1` [Compound I-293], the 50% effective concentration (EC50) at ABCC6 WT was 1 to 10 µM; on ABCA4 P1380L, < 25 µM.
In the same order, the values of `Cc1cc(C(F)(F)F)nc(C2CC2)c1Oc1nc(-c2cncc(C#N)c2)ccc1S(=O)(=O)Nc1cccnc1` [Compound I-294] are < 1 µM and < 25 µM.
For `Cc1cc(C(F)(F)F)nc(C2CC2)c1Oc1nc(-c2cccc(C#N)c2)ccc1S(=N)(=O)C1CC1` (centres unmarked) [Compound I-295], in that order: < 1 µM and < 25 µM.
In the same order, the values of `Cc1cc(C(F)(F)F)nc(C2CC2)c1Oc1nc(-c2cncc(C#N)c2)ccc1S(=N)(=O)c1cccnn1` (centres unmarked) [Compound I-296] are 1 to 10 µM and < 1 µM.
With `Cc1cc(C(F)(F)F)nc(C2CC2)c1Oc1nc(-c2cncc(C#N)c2)ccc1S(=N)(=O)c1cnccn1` (centres unmarked) [Compound I-297], the EC50 on ABCC6 WT and at ABCA4 P1380L was 1 to 10 µM each time.
As for `CNS(=O)(=O)c1ccc(-c2cncc(C#N)c2)nc1Oc1c(C)cc(C2CC2)nc1C1CC1` [Compound I-298], the half-maximal effective concentration (EC50) at ABCC6 WT is 1 to 10 µM; on ABCA4 P1380L, > 25 µM.
Regarding `Cc1sc(C2CC2)nc1Oc1nc(-c2cncc(C#N)c2)ccc1NS(C)(=O)=O` [Compound I-299], the 50% effective concentration (EC50) at ABCC6 WT and on ABCA4 P1380L was < 1 µM in each case.
Take `Cc1nc(Oc2nc(-c3cncc(C#N)c3)ccc2NS(C)(=O)=O)c(C2CC2)s1` [Compound I-300]: the EC50 at ABCC6 WT is < 1 µM; at ABCA4 P1380L, < 25 µM.
Consider `Cc1cc(C(F)(F)F)nc(C2CC2)c1Oc1nc(-c2cncc(C#N)c2)ccc1S(=N)(=O)C1CCOCC1` (centres unmarked) [Compound I-301], for which the half-maximal effective concentration (EC50) was 1 to 10 µM on ABCC6 WT and < 25 µM on ABCA4 P1380L.
Turning to `Cc1cc(C(F)(F)F)nc(C2CC2)c1Oc1nc(-c2cncc(C#N)c2)ccc1S(=N)(=O)c1ccccn1` (centres unmarked) [Compound I-302], the EC50 was 10 to 25 µM at ABCC6 WT and > 25 µM on ABCA4 P1380L.
`Cc1nc(C(F)(F)F)nc(C2CC2)c1Oc1nc(-c2cncc(C#N)c2)ccc1S(=N)(=O)C1CC1` (centres unmarked) [Compound I-303]: the concentration giving a half-maximal response (EC50) on ABCC6 WT is 1 to 10 µM; at ABCA4 P1380L, > 25 µM.
With `Cc1cc(C(F)(F)F)nc(C2CC2)c1Oc1nc(-c2cncc(C#N)c2)ccc1S(=N)(=O)c1cccnc1` (centres unmarked) [Compound I-304], the concentration for a half-maximal effect (EC50) at ABCC6 WT and at ABCA4 P1380L was 1 to 10 µM each time.
`Cc1cc(C(F)(F)F)nc(C2CC2)c1Oc1nc(-c2cncc(C#N)c2)ccc1S(=O)(=O)NC1COC1` [Compound I-305]: the 50% effective concentration (EC50) was < 1 µM on ABCC6 WT and > 25 µM on ABCA4 P1380L.
In the same order, the values of `Cc1cc(C(F)(F)F)nc(C2CC2)c1Oc1nc(-c2cncc(C#N)c2)ccc1S(=O)(=O)NC1CCOCC1` [Compound I-306] are < 1 µM and < 25 µM.
In the same order, the values of `Cc1cc(C)c(Oc2nc(-c3c[nH]c(=O)c(C#N)c3)ccc2NS(C)(=O)=O)c(C)n1` [Compound I-307] are 1 to 10 µM and > 25 µM.
Regarding `CNS(=O)(=O)c1ccc(-c2cncc(C#N)c2)nc1Oc1nc(C2CC2)sc1C` [Compound I-308], the concentration for a half-maximal effect (EC50) at ABCC6 WT is 1 to 10 µM; at ABCA4 P1380L, > 25 µM.
In the same order, the values of `Cc1nc(C(F)(F)F)nc(C2CC2)c1Oc1nc(-c2cncc(C#N)c2)ccc1S(=O)(=O)Nc1cnn(C)c1` [Compound I-309] are 1 to 10 µM and > 25 µM.
In the same order, the values of `Cc1nc(C(F)(F)F)nc(C2CC2)c1Oc1nc(-c2cncc(C#N)c2)ccc1S(=O)(=O)Nc1cccnc1` [Compound I-310] are < 1 µM and > 25 µM.
In the case of `Cc1cc(C)[n+]([O-])c(C)c1Oc1nc(-c2cncc(C#N)c2)ccc1NS(C)(=O)=O` [Compound I-311], the EC50 at ABCC6 WT and on ABCA4 P1380L was 1 to 10 µM throughout.

The EC50 is the concentration at which the effect is half-maximal.
